# Target: T1, Human TREX1 enzyme (amino acids 1-242) (Homo sapiens, UniProt Q9NSU2)
# T1 construct: Human TREX1 enzyme (amino acids 1-242)
# T1 sequence (Q9NSU2 1-242): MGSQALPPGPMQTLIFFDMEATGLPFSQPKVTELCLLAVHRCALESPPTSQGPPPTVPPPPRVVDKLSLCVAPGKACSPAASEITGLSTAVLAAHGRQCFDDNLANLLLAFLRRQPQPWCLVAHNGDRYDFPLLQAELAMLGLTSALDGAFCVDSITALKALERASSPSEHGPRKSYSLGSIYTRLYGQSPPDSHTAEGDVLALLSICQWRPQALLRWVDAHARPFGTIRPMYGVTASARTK
# Assay: Human TREX1 enzymatic assay with dsDNA native oligonucleotide (Picogreen fluorescence)
# Type: biochemical
# Settings: 2 mM dithiothreitol in assay buffer; 50 nM dsDNA oligonucleotide; 30 min preincubation at 25° C.; read-out: TREX1/Human + DTT IC50 AVG
# Method in brief: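 TREX1 (0.8–0.16 nM final) preincubated with compound (300 μM–13 nM or 30 μM–1.5 nM, 2% DMSO) 30 min at 25 °C in Tris pH 7.7, 5 mM MgCl2, 2 mM DTT. Annealed dsDNA (50 nM) added for 5–15 min at 25 °C; EDTA quench with Picogreen fluorescence readout.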
row,Structure (SMILES),IC50 [nM]
1,"COc1c(O)c(O)cc(-c2nc3cc(N4CCC4)ccc3n2C2COC2)c1F [Example 298, 5-(5-(azetidin-1-yl)-1-(oxetan-3-yl)-1H-benzo[d]imidazol-2-yl)-4-fluoro-3-methoxybenzene-1,2-diol]",1000 to 10000
2,"COc1c(C)c(-c2nc3cc(N4CCC4)ccc3n2C2CCC2)cc(O)c1O [Example 299, 5-(5-(azetidin-1-yl)-1-cyclobutyl-1H-benzo[d]imidazol-2-yl)-3-methoxy-4-methylbenzene-1,2-diol]",10000 to 100000
3,"COc1cc(-c2nc3cc(Cl)c(Cl)cc3[nH]2)c(F)c(O)c1O [Example 300, 4-(5,6-dichloro-1H-benzo[d]imidazol-2-yl)-3-fluoro-6-methoxybenzene-1,2-diol]",10000 to 100000
4,"COc1cc(-c2nc3c(Cl)c(Cl)ccc3n2C2(C)COC2)cc(O)c1O [Example 301, 5-(4,5-dichloro-1-(3-methyloxetan-3-yl)-1H-benzo[d]imidazol-2-yl)-3-methoxybenzene-1,2-diol]",100 to 1000
5,"COc1cc(-c2nc3cc(Cl)c(Cl)cc3n2C2(C)COC2)cc(O)c1O [Example 302, 5-(5,6-dichloro-1-(3-methyloxetan-3-yl)-1H-benzo[d]imidazol-2-yl)-3-methoxybenzene-1,2-diol]",100 to 1000
6,"COc1cc(-c2nc3cc(NC(=O)c4ccccc4)ccc3n2C2(C)COC2)c(F)c(O)c1O [Example 303, N-(2-(2-fluoro-3,4-dihydroxy-5-methoxyphenyl)-1-(3-methyloxetan-3-yl)-1H-benzo[d]imidazol-5-yl)benzamide]",≤ 100
7,"COc1cc(-c2nc3cc(NC(=O)c4cccnc4)ccc3n2C2(C)COC2)c(F)c(O)c1O [Example 304, N-(2-(2-fluoro-3,4-dihydroxy-5-methoxyphenyl)-1-(3-methyloxetan-3-yl)-1H-benzo[d]imidazol-5-yl)nicotinamide]",100 to 1000
8,"COc1cc(-c2nc3ccc(NC(=O)c4ccc(F)cc4)cc3n2C2(C)COC2)c(F)c(O)c1O [Example 305, 4-fluoro-N-(2-(2-fluoro-3,4-dihydroxy-5-methoxyphenyl)-1-(3-methyloxetan-3-yl)-1H-benzo[d]imidazol-6-yl)benzamide]",≤ 100
9,"COc1cc(-c2nc3cc(NC(=O)c4ccncc4)ccc3n2C2(C)COC2)c(F)c(O)c1O [Example 306, N-(2-(2-fluoro-3,4-dihydroxy-5-methoxyphenyl)-1-(3-methyloxetan-3-yl)-1H-benzo[d]imidazol-5-yl)isonicotinamide]",≤ 100
10,"COc1cc(-c2nc3ccc(C(=O)NC4CS(=O)(=O)C4)cc3n2C2(C)COC2)c(F)c(O)c1O [Example 307, N-(1,1-dioxidothietan-3-yl)-2-(2-fluoro-3,4-dihydroxy-5-methoxyphenyl)-1-(3-methyloxetan-3-yl)-1H-benzo[d]imidazole-6-carboxamide]",≤ 100
11,"CNC(=O)c1ccc2c(c1)nc(-c1cc(OC)c(O)c(O)c1F)n2C1(C)COC1 [Example 308, 2-(2-fluoro-3,4-dihydroxy-5-methoxyphenyl)-N-methyl-1-(3-methyloxetan-3-yl)-1H-benzo[d]imidazole-5-carboxamide]",100 to 1000
12,"CNC(=O)c1ccc2nc(-c3cc(OC)c(O)c(O)c3F)n(C3CCC3)c2c1 [Example 309, 1-cyclobutyl-2-(2-fluoro-3,4-dihydroxy-5-methoxyphenyl)-N-methyl-1H-benzo[d]imidazole-6-carboxamide]",≤ 100
13,"CNC(=O)c1ccc2nc(-c3cc(OC)c(O)c(O)c3F)n(C3(C)CCC3)c2c1 [Example 310, 2-(2-fluoro-3,4-dihydroxy-5-methoxyphenyl)-N-methyl-1-(1-methylcyclobutyl)-1H-benzo[d]imidazole-6-carboxamide]",≤ 100
14,"COc1cc(-c2nc3cc(NC(C)=O)ccc3n2C2(C)COC2)c(C)c(O)c1O [Example 311, N-(2-(3,4-dihydroxy-5-methoxy-2-methylphenyl)-1-(3-methyloxetan-3-yl)-1H-benzo[d]imidazol-5-yl)acetamide]",100 to 1000
